Experimental data taken from patent publication US4324796A, “Substituted oxiranecarboxylic acids, their use and medicaments containing them” (BYK Gulden Lomberg Chemische Fabrik Gesellschaft mit …, priority 1979, dated 1982).
Like-named read-outs stand apart in the source and are kept apart here.

How the values were obtained:
[1] = tested on: blood glucose concentration; assay: Blood glucose lowering after single oral administration, fasting metabolically healthy rats; conditions: for ED50: Rattus norvegicus, po, 5 h; for ED50 (15%): dose which effects a lowering of the blood glucose concentration by 15% in 50% of the animals: Table II, rats p.o., α-methylenecarboxylic acid intermediates;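 as to all read-outs here: young male Sprague-Dawley rats fasted 18 h, blood glucose sampled before dosing and at 3 and 5 h afterwards, compared with a solvent-treated control group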
[2] = tested on: blood glucose concentration; assay: Blood glucose lowering after single oral administration, fasting metabolically healthy guinea pigs; type: in vivo, guinea pigs (young cross-bred male); conditions: Cavia porcellus
[3] = Acute toxicity, guinea pig, peroral; conditions: in vivo, po; Table III; guinea pig p.o.; preliminary results
Text: Column C provides data relating to acute toxicity (LD50; guinea pig, peroral administration).

[4] = tested on: blood glucose concentration; conditions: guinea pig, in vivo, po; cited from earlier work
guinea pig = conditions: Table III; guinea pig p.o.; cited according to Proske et al. 1962; cited from earlier work
in vivo = conditions: mouse, po, Table I, mice p.o., 7 days observation, read-out: LD50 (acute toxicity)
Procedure: 2. Determination of the toxicity
Various doses of the substances (volume: 10 ml/kg) are administered orally by means of a stomach tube. The observation time is 7 days.

[5] = tested on: blood glucose concentration; conditions: rat, in vivo, po, 300 min
[6] = read-out: ED50 (15%): dose which effects a lowering of the blood glucose concentration by at least 15% in 50% of the animals
[7] = read-out: ED50 (25%): dose which effects a lowering of the blood glucose concentration by at least 25% in 50% of the animals
[8] = 5 h, read-out: ED50 (15%): dose which effects a lowering of the blood glucose concentration by at least 15% in 50% of the animals
[9] = 5 h, read-out: ED50 (25%): dose which effects a lowering of the blood glucose concentration by at least 25% in 50% of the animals
[10] = Table III B, guinea pig p.o., single dose, 5 hours, vs control group, read-out: ED50 (15%): dose which effects a lowering of the blood glucose concentration by at least 15% in 50% of the animals

Compound: O=C([O-])C1(CCCCCc2ccc(Cl)cc2)CO1.[Na+] (stereo not drawn)
- ED50 [1, 6]: 5 mg/kg
- ED50 [1, 7]: 16 mg/kg
- ED50 [2, 8]: 3 mg/kg
- ED50 [2, 9]: 8 mg/kg
- LD50 [3]: 300 to 400 mg/kg

Compound: O=C([O-])C1(CCCc2ccc(Cl)cc2)CO1.[Na+] (stereo not drawn)
- ED50 [1, 6]: 20 mg/kg
- ED50 [1, 7]: 41 mg/kg
- ED50 [2, 8]: 12 mg/kg
- ED50 [2, 9]: 26 mg/kg
- LD50 [3]: 500 to 600 mg/kg

Compound: O=C([O-])C1(CCCc2cccc(C(F)(F)F)c2)CO1.[Na+] (stereo not drawn)
- ED50 [1, 6]: 14 mg/kg
- ED50 [1, 7]: 23 mg/kg
- ED50 [2, 8]: 6 mg/kg
- ED50 [2, 9]: 11 mg/kg
- LD50 [3]: 300 to 400 mg/kg

Compound: O=C([O-])C1(CCCCCc2ccccc2)CO1.[Na+] (stereo not drawn)
- ED50 [1, 6]: 2 mg/kg
- ED50 [1, 7]: 12 mg/kg
- ED50 [2, 8]: 3 mg/kg
- ED50 [2, 9]: 7 mg/kg
- LD50 [3]: 500 to 600 mg/kg

Compound: 2-(3-Phenylpropyl)oxirane-2-carboxylic acid methyl ester [Example 13]
- ED50 (15%): dose which effects a lowering of the blood glucose concentration by 15% in 50% of the animals [1]: 252 mg/kg

Compound: 2-Benzyloxirane-2-carboxylic acid ethyl ester [Example 15]
- ED50 (15%): dose which effects a lowering of the blood glucose concentration by 15% in 50% of the animals [1]: 80 mg/kg

Compound: CCCCNC(=N)NC(=N)N [Serial No. 1, Buformin, reference compound]
- ED50 [1, 6]: > 100 mg/kg
- ED50 [1, 7]: 194 mg/kg
- ED50 (25%): dose which effects a lowering of the blood glucose concentration by 25% in 50% of the animals [4]: 40 to 50 mg/kg
- LD50 (acute toxicity) (guinea pig): 58 mg/kg

Compound: [H]/N=C(/N)N/C(=N/[H])NCCc1ccccc1 [Serial No. 2, Phenformin, reference compound]
- ED50 [1, 6]: > 150 mg/kg
- ED50 [1, 7]: > 343 mg/kg
- ED50 [4]: 20 to 25 mg/kg

Compound: CCOC(=O)C1(CCCc2ccc(Cl)cc2)CO1 (stereo not drawn) [Serial No. 3, 2-[3-(4-Chlorophenyl)propyl]oxirane-2-carboxylic acid ethyl ester]
- ED50 [1, 6]: 40 mg/kg
- ED50 [1, 7]: 54 mg/kg
- ED50 [2, 10]: 11 mg/kg
- LD50 (in vivo): 730 mg/kg

Compound: CCOC(=O)C1(CCCc2cccc(C(F)(F)F)c2)CO1 (stereo not drawn) [Serial No. 5, 2-[3-(3-Trifluoromethylphenyl)propyl]oxirane-2-carboxylic acid ethyl ester]
- ED50 [1, 6]: 6 mg/kg
- ED50 [1, 7]: 24 mg/kg
- ED50 [2, 10]: 3 mg/kg
- LD50 (in vivo): ~300 mg/kg

Compound: CCOC(=O)C1(CCCCCc2ccccc2)CO1 (stereo not drawn) [Serial No. 7, 2-(5-Phenylpentyl)oxirane-2-carboxylic acid ethyl ester]
- ED50 [5]: 21 mg/kg
- ED50 [1, 6]: 10 mg/kg
- ED50 [2, 10]: 11 mg/kg
- LD50 (in vivo): 230 mg/kg

Compound: CCOC(=O)C1(CCCCCc2ccc(Cl)cc2)CO1 (stereo not drawn) [Serial No. 9, 2-[5-(4-Chlorophenyl)pentyl]oxirane-2-carboxylic acid ethyl ester]
- ED50 [1, 6]: 3 mg/kg
- ED50 [1, 7]: 24 mg/kg
- ED50 [2, 10]: 5 mg/kg
- LD50 (in vivo): 275 mg/kg

Compound: CCOC(=O)C1(CCCCc2ccccc2)CO1 (stereo not drawn) [Serial No. 11, 2-(4-Phenylbutyl)oxirane-2-carboxylic acid ethyl ester]
- ED50 [1, 6]: 67 mg/kg

Compound: CCOC(=O)C1(CCCc2cccc(Cl)c2)CO1 (stereo not drawn) [Serial No. 12, 2-[3-(3-Chlorophenyl)propyl]oxirane-2-carboxylic acid ethyl ester]
- ED50 [1, 6]: 59 mg/kg

Compound: Sodium 2-(3-phenylpropyl)oxirane-2-carboxylate [Example 14]
- ED50 (15%): dose which effects a lowering of the blood glucose concentration by 15% in 50% of the animals [1]: > 253 mg/kg
